Data set [1] relates to ACh release from striatum. Format: in vivo, rat. As to conditions: striatum of conscious rat, Tacrine 3 mg/kg i.p. (FIG. 3). How it is done:
Surgery: For these studies, male Sprague-Dawley Rats (250-350 g) were anesthetized with sodium pentobarbital (54 mg/kg, ip) and placed on a Kopf sterotaxic apparatus. The skull was exposed and drilled through to the dura at a point 0.2 mm anterior and 3.0 mm lateral to the bregma. At these coordinates, a guide cannula was positioned at the outer edge of the dura through the drilled opening, lowered perpendicularly to a depth of 2.5 mm, and permanently secured with dental cement to bone screws. Following the surgery, rats were given ampicillin (40 mg/kg, ip) and individually housed in modified cages. A recovery period of approximately 3 to 7 days was allowed before the microdialysis procedure was undertaken.
Microdialysis: All of the equipment and instrumentation used to conduct in vivo microdialysis was obtained from Bioanalytical Systems, Inc. (BAS). The microdialysis procedure involved the insertion through the guide cannula of a thin, needle-like perfusable probe (CMA/12,3 mm×0.5 mm) to a depth of 3 mm in striatum beyond the end of the guide. The probe was connected beforehand with tubing to a microinjection pump (CMA-/100). Rats were collared, tethered, and, following probe insertion, were placed in a large, clear, plexiglass bowl with litter material and access to food and water. The probe was perfused at 2 μl/min with Ringer's buffer (NaCl 147 mM; KCl 3.0 mM; CaCl2 1.2 mM; MgCl2 1.0 mM) containing 5.5 mM glucose, 0.2 mM L-ascorbate, and 1 μM neostigmine bromide at pH 7.4). To achieve stable baseline readings, microdialysis was allowed to proceed for 90 minutes prior to the collection of fractions. Fractions (20 μl) were obtained at 10 minute intervals over a 3 hour period using a refrigerated collector (CMA170 or 200). Four to five baseline fractions were collected, following which the drug or combination of drugs to be tested was administered to the animal. Upon completion of the collection, each rat was autopsied to determine accuracy of probe placement.
Acetylcholine (ACh) analysis: The concentration of ACh in collected samples of microdialysate was determined using HPLC/electrochemical detection. Samples were auto-injected (Waters 712 Refrigerated Sample Processor) onto a polymeric analytical HPLC column (BAS, MF-6150) and eluted with 50 mM Na2HPO4, pH 8.5. To prevent bacterial growth, Kathon CG reagent (0.005%) (BAS) was included in the mobile phase. Eluent from the analytical column, containing separated ACh and choline, was then immediately passed through an immobilized enzyme reactor cartridge (BAS, MF-6151) coupled to the column outlet. The reactor contained both acetylcholinesterase and choline oxidase covalently bound to a polymeric backbone. […] Data acquisition was carried out using an IBM Model 70 computer equipped with a microchannel IEEE board. Integration and quantification of peaks were accomplished using “Maxima” chromatography software (Waters Corporation). Total run time per sample was 11 minutes at a flow rate of 1 ml/min. Retention times for acetylcholine and choline were 6.5 and 7.8 minutes, respectively. To monitor and correct for possible changes in detector sensitivity during chromatography, ACh standards were included at the beginning, middle and end of each sample queue.
Increases in ACh levels are consistent with presynaptic m2 receptor antagonism.

For data set [2], the target named is T1, cloned human m1 muscarinic receptor (Homo sapiens, UniProt P11229).
T1 sequence (P11229 1-460): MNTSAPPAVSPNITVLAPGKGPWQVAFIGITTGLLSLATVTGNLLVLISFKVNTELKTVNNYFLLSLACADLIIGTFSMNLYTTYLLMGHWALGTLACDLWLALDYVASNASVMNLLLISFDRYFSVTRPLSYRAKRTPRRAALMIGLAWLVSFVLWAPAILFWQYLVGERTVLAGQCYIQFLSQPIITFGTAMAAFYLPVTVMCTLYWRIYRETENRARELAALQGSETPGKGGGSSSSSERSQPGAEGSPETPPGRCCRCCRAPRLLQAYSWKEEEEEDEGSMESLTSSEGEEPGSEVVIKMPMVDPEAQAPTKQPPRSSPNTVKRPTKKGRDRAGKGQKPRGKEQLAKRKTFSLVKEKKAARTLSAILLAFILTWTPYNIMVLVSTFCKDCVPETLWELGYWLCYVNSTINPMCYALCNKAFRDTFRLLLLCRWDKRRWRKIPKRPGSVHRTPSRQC
Kind of data set: Muscarinic binding activity, 3H-QNB, m1. The settings on record: for Ki: range given for the named group of compounds, read-out: Ki, nM, m1. How it is done:
(§1) The compound of interest is tested for its ability to inhibit binding to the cloned human m1, m2, m3, and m4 muscarinic receptor subtypes. The sources of receptors in these studies were membranes from stably transfected CHO cell lines which were expressing each of the receptor subtypes. Following growth, the cells were pelleted and subsequently homogenized using a Polytron in 50 volumes cold 10 mM Na/K phosphate buffer, pH 7.4 (Buffer B). The homgenates were centrifuged at 40,000×g for 20 minutes at 4° C. The resulting supernatants were discarded and the pellets were resuspended in Buffer B at a final concentration of 20 mg wet tissue/ml. These membranes were stored at −80° C. until utilized in the binding assays described below.
(§2) Binding to the cloned human muscarinic receptors was performed using ^3H-quinuclidinyl benzilate (QNB) (Watson et al., 1986). Briefly, membranes (approximately 8, 20, and 14 μg of protein assay for the m1, m2, and m4 containing membranes, respectively) were incubated with ^3H-QNB (final concentration of 100-200 pM) and increasing concentrations of unlabeled drug in a final volume of 2 ml at 25° C. for 90 minutes. Non-specific binding was assayed in the presence of 1 μM atropine. The incubations were terminated by vacuum filtration over GF/B glass fiber filters using a Skatron filtration apparatus and the filters were washed with cold 10 mM Na/K phosphate butter, pH 7.4. Scintillation cocktail was added to the filters and the vials were incubated overnight. The bound radioligand was quantified in a liquid scintillation counter (50% efficiency). The resulting data were analyzed for IC50 values (i.e. the concentration of compound required to inhibit binding by 50%) using the EBDA computer program (McPherson, 1985). Affinity values (Ki) were then determined using the following formula (Cheng and Prusoff, 1973); [formula]
(§3) To determine the degree of selectivity of a compound for binding the m2 receptor, the Ki value for m1 receptors was divided by the Ki value for m2 receptors. A higher ratio indicates a greater selectivity for binding the m2 muscarinic receptor.

The target in data set [3] is T2, cloned human m4 muscarinic receptor (Homo sapiens, UniProt P08173).
T2 sequence (P08173 1-479): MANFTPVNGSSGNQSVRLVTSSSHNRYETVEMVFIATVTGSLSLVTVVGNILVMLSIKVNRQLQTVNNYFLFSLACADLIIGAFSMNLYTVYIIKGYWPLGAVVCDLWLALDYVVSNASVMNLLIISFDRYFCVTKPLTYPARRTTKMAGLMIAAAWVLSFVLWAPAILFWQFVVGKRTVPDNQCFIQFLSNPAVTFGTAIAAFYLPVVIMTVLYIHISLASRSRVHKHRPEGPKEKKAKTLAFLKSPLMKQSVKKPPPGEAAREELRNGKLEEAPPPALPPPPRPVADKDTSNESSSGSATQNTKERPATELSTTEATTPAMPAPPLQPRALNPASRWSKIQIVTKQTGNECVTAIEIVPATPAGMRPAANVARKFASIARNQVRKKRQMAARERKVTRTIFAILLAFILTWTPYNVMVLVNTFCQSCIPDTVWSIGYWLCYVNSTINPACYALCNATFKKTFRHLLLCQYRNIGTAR
Kind of data set: Muscarinic binding activity, 3H-QNB, m4. As to conditions: for Ki: range given for the named group of compounds, read-out: Ki, nM, m4. How it is done:
as §1, §2

The target in data set [4] is T3, cloned human m2 muscarinic receptor (Homo sapiens, UniProt P08172).
T3 sequence (P08172 1-466): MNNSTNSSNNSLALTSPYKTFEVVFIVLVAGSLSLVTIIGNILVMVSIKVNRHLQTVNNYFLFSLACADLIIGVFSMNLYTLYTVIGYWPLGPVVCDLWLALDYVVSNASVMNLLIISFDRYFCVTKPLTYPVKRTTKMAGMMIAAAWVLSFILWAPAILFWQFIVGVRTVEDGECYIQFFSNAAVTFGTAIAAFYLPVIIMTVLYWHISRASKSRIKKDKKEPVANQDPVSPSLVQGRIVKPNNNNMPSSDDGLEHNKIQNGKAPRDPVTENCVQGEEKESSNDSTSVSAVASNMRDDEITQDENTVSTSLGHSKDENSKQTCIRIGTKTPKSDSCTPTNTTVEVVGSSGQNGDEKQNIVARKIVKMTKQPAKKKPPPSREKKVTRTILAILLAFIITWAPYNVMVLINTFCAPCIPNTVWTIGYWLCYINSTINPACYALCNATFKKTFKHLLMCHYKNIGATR
In words: Muscarinic binding activity, 3H-QNB, m2. The settings on record: for Ki: range given for the named group of compounds, read-out: Ki, nM, m2. How it is done: as §1, §2, §3

pKi: −log10 of the molar value. Counter-ions that a name gives are not always drawn. Like-named read-outs stand apart in the source and are kept apart here.

For `Nc1c2c(nc3ccccc13)CCCC2` [Tacrine, reference compound], the “Peak ACh release as % increase over Baseline” value in data set [1] is on record as 30 (FIG. 3) %.

The Ki is a dissociation constant, usually derived from enzyme kinetics or from competition with a known ligand. For the compound `COc1ccc([S+]([O-])c2ccc(C(C)(C#N)N3CCN(C4CCCCC4)CC3)cc2)cc1` (stereo not shown) [Compound 289], the Ki in data set [2] lay in the range of 2.1 to 224 nM; in data set [3] it was 0.33 to 36 nM; in data set [4], 0.05 to 16.6 nM.

The term melting point denotes the temperature of the solid-liquid transition. With `C=C(c1ccc([S+]([O-])c2ccc(OC)cc2)cc1)C1CCN(C2CCCCC2)CC1` (single isomer, unassigned) [Compound 301], the melting point fell in the range of 141 to 142 °C.

For the compound `COC(=O)C(c1ccc(S(=O)(=O)c2ccc(OC)cc2)cc1)N1CCN(C2CCCCC2)CC1` (stereo not shown) [Compound 214], the Ki lay within 2.1 to 224 nM in data set [2], 0.33 to 36 nM in data set [3] and 0.05 to 16.6 nM in data set [4].

As for `c1cnc(Oc2ccc(C(C3CCCCC3)N3CCN(C4CCCCC4)CC3)cc2)nc1` (single isomer, unassigned) [227(−)], the Ki in data set [2] lay in the range of 2.1 to 224 nM; in data set [3], 0.33 to 36 nM; in data set [4], 0.05 to 16.6 nM.

Regarding `COC(=O)C(C)(c1ccc([S+]([O-])c2ccc(OC)cc2)cc1)N1CCN(C2CCCCC2)CC1` (stereo not shown) [Compound 296], the Ki in data set [2] fell in the range of 2.1 to 224 nM; in data set [3] it was 0.33 to 36 nM; in data set [4], 0.05 to 16.6 nM.

The pKi is −log10 of the Ki, conventionally taken in molar units. Regarding `CC(C)C(c1ccc(Oc2ncccn2)cc1)N1CCN(C2CCCCC2)CC1` (stereo not shown) [Compound 232], the pKi in data set [2] was 6.65 to 8.68; in data set [3], 7.44 to 9.48; in data set [4], 7.78 to 10.30.

Turning to `C=C(c1ccc([S+]([O-])c2ccc(OC)cc2)cc1)C1CCN(C2CCCCC2)CC1` (single isomer, unassigned) [Compound 300], the values for the Ki in data set [2], in data set [3] and in data set [4] were 2.1 to 224 nM, 0.33 to 36 nM and 0.05 to 16.6 nM, respectively.

For the compound `C=C(c1ccc(Sc2ccc(OC)cc2)cc1)C1CCN(C2CCCCC2)CC1` (as salt: hydrochloride) [Compound 302], the melting point is 227 to 230 °C.

For `O=C(O)/C=C\C(=O)O.c1ccc(Oc2ccc(C3(N4CCN(C5CCCCC5)CC4)CCSCC3)cc2)cc1`, the melting point was in the range of 137 to 139 °C.

In the case of `C=C(c1ccc([S+]([O-])c2ccc(OC)cc2)cc1)C1CCN(C2CCCCC2)CC1` (stereo not shown) [Compound 304], the Ki in data set [2] lay within 2.1 to 224 nM; in data set [3], 0.33 to 36 nM; in data set [4], 0.05 to 16.6 nM.

For the compound `COc1ccc(S(=O)(=O)c2ccc([C@H](C)N3CCN(C4CCCCC4)C[C@H]3C)cc2)cc1` [Compound 656], the melting point was 227 to 230 °C. Also, in data set [4], the Ki was in the range of 0.03 to 0.48 nM.

Consider `COc1ccc([S+]([O-])c2ccc(C(=O)C3CCN(C4CCCCC4)CC3)cc2)cc1` (stereo not shown) [Compound 305], for which the melting point turned out to be 125 °C. Further, in data set [2], the Ki was 2.1 to 224 nM. Moreover, in data set [3], the Ki lay within 0.33 to 36 nM. In addition, the Ki in data set [4] is 0.05 to 16.6 nM.

Regarding `C=C(c1ccc(S(=O)(=O)c2ccc(OC)cc2)cc1)C1CCN(C2CCN(C(=O)OCC)CC2)CC1` [Compound 760], the Ki in data set [4] was 0.03 to 0.48 nM.

Consider `COc1ccc(S(=O)(=O)c2ccc([C@@H](C)N3CCN(C4CCCCC4)C[C@H]3C)cc2)cc1` [Compound 667], for which the melting point lay within 241 to 242 °C. Further, the Ki in data set [4] was in the range of 0.03 to 0.48 nM.

On to `C=C(c1ccc(Sc2ccc(OC)cc2)cc1)C1CCN(C2CCCCC2)CC1` [Compound 302], for which the Ki in data set [2] was in the range of 2.1 to 224 nM; in data set [3], 0.33 to 36 nM; in data set [4], 0.05 to 16.6 nM.

For the compound `CC1CN(C2CCCCC2)CCN1C(C)c1ccc(Oc2ncccn2)cc1` (stereo not shown) [Compound 269], the Ki was in the range of 2.1 to 224 nM in data set [2], 0.33 to 36 nM in data set [3] and 0.05 to 16.6 nM in data set [4].
